From US20240208961A1, “EIF4E INHIBITORS AND USES THEREOF” (PIC Therapeutics, Inc., priority 2022, published 2024)
Several values for one entry are separate records, joined by “and”; a condition that tells them apart may be missing. Identical values can stand only once. Like-named read-outs stand apart in the source and are kept apart here.

Legend:
[1] = molecular target: T1, Human eIF4E (aa 28-217) (Homo sapiens, UniProt P06730); assay: 4G-eIF4E protein-based assay (TR-FRET, biotin labeled 4G2 peptide); type: binding
T1 construct: Human eIF4E (aa 28-217) with a C-terminal His-tag; made in house

[2] = Pharmacokinetic studies of certain compounds in female Balb/c mice (Example 5); type: in vivo
Protocol: Pharmacokinetic studies were performed using Balb/c mice, 15-20 g, 6-9 weeks, female, N=9, purchased from Jihui Laboratory Animal Co. LTD. For compound I-29, Balb/c mice, 19-21 g, 9-11 weeks, female, N=9, were used. The mice were fasted overnight and fed at 4 h post dosing.
Animals were dosed via oral gavage (PO) or tail vein injection (IV) with compound. Sampling occurred at 0.083, 0.25, 0.5, 1, 2, 4, 8, and 24 h post dose (8 time points). The animals were restrained manually at the designated time points. Approx. […] of blood was taken from the animals via facial vein for semi-serial bleeding into tubes with K2EDTA. Blood samples were put on ice and centrifuged at 4° C. (2000 g, 5 min) to obtain plasma within 15 min after sample collection. Plasma samples were stored in dry ice temporarily and at approximately −70° C. until analysis.
For oral gavage, the compound was dosed as a suspension in 1% sodium carboxymethyl cellulose (CMC) and 0.2% Tween 80 in water. For 23.8 mg/kg and 30 mg/kg doses, 3 mg/mL was used; for 50 mg/kg doses, 5 mg/mL was used; and for 100 mg/kg doses, 10 mg/mL was used.
For IV administration, the compound was dosed as a solution in 5% DMSO, 5% Solutol HS15 and 90% saline. For 1 mg/kg and 1.48 mg/kg doses, 0.2 mg/mL was used.
Plasma samples were analyzed using LC-MS using a calibration curve of known concentrations.
The results of these studies are summarized in Tables 11-21 below and in FIGS. 2-8. […] BQL=below quantifiable limit for compound in female Balb/c mouse plasma samples. NA=not available. PK parameters were estimated by non-compartmental model using WinNonlin 8.2. If the adjusted rsq (linear regression coefficient of the concentration value on the terminal phase) was less than 0.9, T1/2 might not have been accurately estimated. F value was determined by the following equation: • If AUClast/AUCINF>80%:
F=(AUCINF-EX×DOSEIV)/(AUCINF-IV×DOSEEX)[…] • If AUClast/AUCINF<80% or AUCINF not available:
F=(AUClast-EX×DOSEIV)/(AUClast-IV×DOSEEX)*1000

[3] = I-3 IV 1 mg/kg, 24 hr, BQL = below quantifiable limit of 1.00 ng/mL

T1 sequence (P06730 28-217): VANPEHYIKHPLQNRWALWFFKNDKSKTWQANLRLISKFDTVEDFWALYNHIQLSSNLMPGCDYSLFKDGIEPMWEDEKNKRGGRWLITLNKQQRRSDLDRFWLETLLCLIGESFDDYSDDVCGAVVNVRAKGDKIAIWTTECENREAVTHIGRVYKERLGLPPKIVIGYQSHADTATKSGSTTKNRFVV

IC50 [1]: 500 to 1000 nM
Plasma concentration Individual ([2]; I-3 IV 1 mg/kg, 0.083 hr, 1 mg/kg): 1790 ng/mL and 2660 ng/mL
Plasma concentration Individual ([2]; I-3 IV 1 mg/kg, 0.25 hr, 1 mg/kg): 633 ng/mL and 539 ng/mL
Plasma concentration Individual ([2]; I-3 IV 1 mg/kg, 0.5 hr, 1 mg/kg): 292 ng/mL and 352 ng/mL
Plasma concentration Individual ([2]; I-3 IV 1 mg/kg, 1 hr, 1 mg/kg): 101 ng/mL and 116 ng/mL
Plasma concentration Individual ([2]; I-3 IV 1 mg/kg, 2 hr, 1 mg/kg): 35.6 ng/mL and 28.1 ng/mL
Plasma concentration Individual ([2]; I-3 IV 1 mg/kg, 4 hr, 1 mg/kg): 7.05 ng/mL and 7.52 ng/mL and 21.3 ng/mL
Plasma concentration Individual ([2]; I-3 IV 1 mg/kg, 8 hr, BQL = below quantifiable limit of 1.00 ng/mL, 1 mg/kg): BQL
Plasma concentration Individual [2, 3]: BQL
Plasma concentration Mean [2, 3]: BQL
F ([2]; I-3 PO 30 mg/kg vs IV 1 mg/kg): 36.0%
Plasma concentration Individual ([2]; I-3 PO 30 mg/kg, 0.083 hr, 30 mg/kg): 69.9 ng/mL and 44.9 ng/mL
Plasma concentration Individual ([2]; I-3 PO 30 mg/kg, 0.25 hr, 30 mg/kg): 420 ng/mL and 461 ng/mL
Plasma concentration Individual ([2]; I-3 PO 30 mg/kg, 0.5 hr, 30 mg/kg): 1920 ng/mL and 1840 ng/mL
Plasma concentration Individual ([2]; I-3 PO 30 mg/kg, 1 hr, 30 mg/kg): 1520 ng/mL and 1760 ng/mL
Plasma concentration Individual ([2]; I-3 PO 30 mg/kg, 2 hr, 30 mg/kg): 1530 ng/mL and 1800 ng/mL
Plasma concentration Individual ([2]; I-3 PO 30 mg/kg, 4 hr, 30 mg/kg): 896 ng/mL and 860 ng/mL
Plasma concentration Individual ([2]; I-3 PO 30 mg/kg, 8 hr, 30 mg/kg): 124 ng/mL and 186 ng/mL
Plasma concentration Individual ([2]; I-3 PO 30 mg/kg, 24 hr, 30 mg/kg): 10.6 ng/mL and 4.10 ng/mL and 3.10 ng/mL
concentration at 0.083 hr ([2]; female, Balb/c, mouse, plasma, iv, 1 mg/kg, I-3 IV 1 mg/kg, 0.083 hr, read-out: Plasma concentration Individual): 1910 ng/mL
concentration at 0.083 hr ([2]; female, Balb/c, mouse, plasma, iv, 1 mg/kg, I-3 IV 1 mg/kg, 0.083 hr, read-out: Plasma concentration Mean): 2120 ng/mL
concentration at 0.25 hr ([2]; female, Balb/c, mouse, plasma, iv, 1 mg/kg, I-3 IV 1 mg/kg, 0.25 hr, read-out: Plasma concentration Individual): 511 ng/mL
concentration at 0.25 hr ([2]; female, Balb/c, mouse, plasma, iv, 1 mg/kg, I-3 IV 1 mg/kg, 0.25 hr, read-out: Plasma concentration Mean): 561 ng/mL
concentration at 0.5 h ([2]; female, Balb/c, mouse, plasma, iv, 1 mg/kg, I-3 IV 1 mg/kg, 0.5 hr, read-out: Plasma concentration Individual): 246 ng/mL
concentration at 0.5 h ([2]; female, Balb/c, mouse, plasma, iv, 1 mg/kg, I-3 IV 1 mg/kg, 0.5 hr, read-out: Plasma concentration Mean): 297 ng/mL
concentration at 1 h ([2]; female, Balb/c, mouse, plasma, iv, 1 mg/kg, I-3 IV 1 mg/kg, 1 hr, read-out: Plasma concentration Individual): 111 ng/mL
concentration at 1 h ([2]; female, Balb/c, mouse, plasma, iv, 1 mg/kg, I-3 IV 1 mg/kg, 1 hr, read-out: Plasma concentration Mean): 109 ng/mL
concentration at 2 h ([2]; female, Balb/c, mouse, plasma, iv, 1 mg/kg, I-3 IV 1 mg/kg, 2 hr, read-out: Plasma concentration Individual): 28.7 ng/mL
concentration at 2 h ([2]; female, Balb/c, mouse, plasma, iv, 1 mg/kg, I-3 IV 1 mg/kg, 2 hr, read-out: Plasma concentration Mean): 30.8 ng/mL
concentration at 4 h ([2]; female, Balb/c, mouse, plasma, iv, 1 mg/kg, I-3 IV 1 mg/kg, 4 hr, read-out: Plasma concentration Mean): 12 ng/mL
concentration at 8 h ([2]; female, Balb/c, mouse, plasma, iv, 1 mg/kg, I-3 IV 1 mg/kg, 8 hr, BQL = below quantifiable limit of 1.00 ng/mL, read-out: Plasma concentration Individual): 1.62 ng/mL
concentration at 8 h ([2]; female, Balb/c, mouse, plasma, iv, 1 mg/kg, I-3 IV 1 mg/kg, 8 hr, BQL = below quantifiable limit of 1.00 ng/mL, read-out: Plasma concentration Mean): 1.62 ng/mL
concentration at 0.083 hr ([2]; female, Balb/c, mouse, plasma, po, 30 mg/kg, I-3 PO 30 mg/kg, 0.083 hr, read-out: Plasma concentration Individual): 56.7 ng/mL
concentration at 0.083 hr ([2]; female, Balb/c, mouse, plasma, po, 30 mg/kg, I-3 PO 30 mg/kg, 0.083 hr, read-out: Plasma concentration Mean): 57.2 ng/mL
concentration at 0.25 hr ([2]; female, Balb/c, mouse, plasma, po, 30 mg/kg, I-3 PO 30 mg/kg, 0.25 hr, read-out: Plasma concentration Individual): 453 ng/mL
concentration at 0.25 hr ([2]; female, Balb/c, mouse, plasma, po, 30 mg/kg, I-3 PO 30 mg/kg, 0.25 hr, read-out: Plasma concentration Mean): 445 ng/mL
concentration at 0.5 hr ([2]; female, Balb/c, mouse, plasma, po, 30 mg/kg, I-3 PO 30 mg/kg, 0.5 hr, read-out: Plasma concentration Individual): 1950 ng/mL
concentration at 0.5 hr ([2]; female, Balb/c, mouse, plasma, po, 30 mg/kg, I-3 PO 30 mg/kg, 0.5 hr, read-out: Plasma concentration Mean): 1900 ng/mL
concentration at 1 hr ([2]; female, Balb/c, mouse, plasma, po, 30 mg/kg, I-3 PO 30 mg/kg, 1 hr, read-out: Plasma concentration Individual): 1490 ng/mL
concentration at 1 hr ([2]; female, Balb/c, mouse, plasma, po, 30 mg/kg, I-3 PO 30 mg/kg, 1 hr, read-out: Plasma concentration Mean): 1590 ng/mL
concentration at 2 hr ([2]; female, Balb/c, mouse, plasma, po, 30 mg/kg, I-3 PO 30 mg/kg, 2 hr, read-out: Plasma concentration Individual): 1750 ng/mL
concentration at 2 hr ([2]; female, Balb/c, mouse, plasma, po, 30 mg/kg, I-3 PO 30 mg/kg, 2 hr, read-out: Plasma concentration Mean): 1690 ng/mL
concentration at 4 hr ([2]; female, Balb/c, mouse, plasma, po, 30 mg/kg, I-3 PO 30 mg/kg, 4 hr, read-out: Plasma concentration Individual): 991 ng/mL
concentration at 4 hr ([2]; female, Balb/c, mouse, plasma, po, 30 mg/kg, I-3 PO 30 mg/kg, 4 hr, read-out: Plasma concentration Mean): 916 ng/mL
concentration at 8 hr ([2]; female, Balb/c, mouse, plasma, po, 30 mg/kg, I-3 PO 30 mg/kg, 8 hr, read-out: Plasma concentration Individual): 182 ng/mL
concentration at 8 hr ([2]; female, Balb/c, mouse, plasma, po, 30 mg/kg, I-3 PO 30 mg/kg, 8 hr, read-out: Plasma concentration Mean): 164 ng/mL
concentration at 24 hr ([2]; female, Balb/c, mouse, plasma, po, 30 mg/kg, I-3 PO 30 mg/kg, 24 hr, read-out: Plasma concentration Mean): 5.93 ng/mL
AUC(0-inf) ([2]; mouse, plasma, I-3 IV 1 mg/kg): 834 ng·h/mL
AUC(0-t) ([2]; mouse, plasma, I-3 IV 1 mg/kg): 831 ng·h/mL
C0 ([2]; mouse, plasma, I-3 IV 1 mg/kg): 4100 ng/mL
MRT inf ([2]; mouse, plasma, I-3 IV 1 mg/kg): 0.58 h
MRT last ([2]; mouse, plasma, I-3 IV 1 mg/kg): 0.542 h
clearance ([2]; mouse, plasma, I-3 IV 1 mg/kg): 20 mL/min/kg
half-life ([2]; mouse, plasma, I-3 IV 1 mg/kg): 84.6 min
Vd ([2]; mouse, plasma, I-3 IV 1 mg/kg, read-out: Vss): 0.695 L/kg
AUC(0-inf) ([2]; mouse, plasma, I-3 PO 30 mg/kg): 9000 ng·h/mL
AUC(0-t) ([2]; mouse, plasma, I-3 PO 30 mg/kg): 8980 ng·h/mL
Cmax ([2]; mouse, plasma, I-3 PO 30 mg/kg): 1900 ng/mL
MRT inf ([2]; mouse, plasma, I-3 PO 30 mg/kg): 3.62 h
MRT last ([2]; mouse, plasma, I-3 PO 30 mg/kg): 3.55 h
Tmax ([2]; mouse, plasma, I-3 PO 30 mg/kg): 30 min
half-life ([2]; mouse, plasma, I-3 PO 30 mg/kg): 166 min
SMILES: CC(C)Cc1sc(Nc2ncc(-c3cccs3)cc2C(=O)O)nc1C1CCCCC1 [Compound I-3]
